Data published in paper PMC10013835 (Proceedings of the National Academy of Sciences of the …, 2023).
Numbering of substitutions follows the chain as printed. Like-named read-outs stand apart in the source and are kept apart here.

Assays:
PXR LBD [1] = molecular target: T1, PXR LBD (Homo sapiens, UniProt O75469)
T1 sequence (O75469 146-433 limits assumed): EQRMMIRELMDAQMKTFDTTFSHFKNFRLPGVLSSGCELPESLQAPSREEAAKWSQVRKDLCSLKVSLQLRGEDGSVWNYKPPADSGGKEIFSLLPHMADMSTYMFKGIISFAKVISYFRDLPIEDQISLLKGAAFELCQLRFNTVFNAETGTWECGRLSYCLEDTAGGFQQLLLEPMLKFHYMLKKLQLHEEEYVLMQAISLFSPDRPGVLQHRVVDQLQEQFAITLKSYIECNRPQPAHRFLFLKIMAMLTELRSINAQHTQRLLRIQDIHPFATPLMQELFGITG

PXR = molecular target: T2, PXR (Homo sapiens, UniProt O75469); assay type: cell-based; settings: WT PXR-transfected 293T cells, 24 h, Fig. 5
T2 sequence (O75469 1-434): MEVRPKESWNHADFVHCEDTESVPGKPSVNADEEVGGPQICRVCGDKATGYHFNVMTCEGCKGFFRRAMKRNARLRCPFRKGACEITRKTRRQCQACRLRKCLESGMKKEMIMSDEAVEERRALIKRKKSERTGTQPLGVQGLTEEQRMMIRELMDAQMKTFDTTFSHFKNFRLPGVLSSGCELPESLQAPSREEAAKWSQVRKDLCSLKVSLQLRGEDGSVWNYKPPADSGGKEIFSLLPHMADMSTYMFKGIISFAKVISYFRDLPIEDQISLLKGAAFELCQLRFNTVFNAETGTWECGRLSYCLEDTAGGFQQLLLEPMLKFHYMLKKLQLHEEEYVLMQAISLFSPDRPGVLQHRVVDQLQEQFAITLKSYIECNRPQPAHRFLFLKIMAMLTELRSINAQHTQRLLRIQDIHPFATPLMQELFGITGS

PXR LBD [2] = molecular target: T1, PXR LBD; test: biochemical; settings: PXR LBD binding [IC50 ± SD (µM)]
W299A mutant PXR = molecular target: T3, W299A mutant PXR (Homo sapiens, UniProt O75469, W299A); settings: 293T cells, 24 h, Fig. 6
T3 sequence (O75469 1-434 W299A): T2 sequence (O75469 1-434) with W299A

Compound	Group (PXR LBD binding affinity group) (PXR LBD [1]; human, pH 7.5)	cellular PXR activity (luciferase reporter), in words (PXR)	IC50 (PXR LBD [2])	reporter activity for W299A PXR versus WT, in words (W299A mutant PXR)	FC, fold change, compound's IC50 divided by that of rifampicin (PXR LBD [1]; PXR LBD binding, relative to rifampicin)	Group (PXR LBD binding affinity group) (PXR LBD [1]; grouping relative to rifampicin affinity)	IC50 (PXR LBD [2]; TR-FRET, GST-PXR LBD, rifampicin analog series)
CO[C@H]1/C=C/O[C@@]2(C)Oc3c(C)c(O)c4c(c3C2=O)C(=O)C=C(NC(=O)/C(C)=C\C=C\[C@H](C)[C@H](O)[C@@H](C)[C@@H](O)[C@@H](C)[C@H](OC(C)=O)[C@@H]1C)C4=O [Rifamycin S]	2	marginally better than rifampicin	0.054 ± 0.014 µM	nearly completely inactive			
CO[C@H]1/C=C/O[C@@]2(C)Oc3c(C)c(O)c4c(c3C2=O)C2=NC3(CCN(CC(C)C)CC3)NC2=C(NC(=O)/C(C)=C\C=C\[C@H](C)[C@H](O)[C@@H](C)[C@@H](O)[C@@H](C)[C@H](OC(C)=O)[C@@H]1C)C4=O [Rifabutin]	1		11.8 ± 4.4 µM	changed very little			
CO[C@H]1/C=C/O[C@@]2(C)Oc3c(C)c(O)c4c(O)c(c5c(nc6cc(C)ccn65)c4c3C2=O)NC(=O)/C(C)=C\C=C\[C@H](C)[C@H](O)[C@@H](C)[C@@H](O)[C@@H](C)[C@H](OC(C)=O)[C@@H]1C [Rifaximin]					4.2	1	11.4 ± 3.3 µM
CO[C@H]1/C=C/O[C@@]2(C)Oc3c(C)c(O)c4c(O)c(cc(O)c4c3C2=O)NC(=O)/C(C)=C\C=C\[C@H](C)[C@H](O)[C@@H](C)[C@@H](O)[C@@H](C)[C@H](OC(C)=O)[C@@H]1C [Rifamycin]	2	marginally better than rifampicin	0.067 ± 0.009 µM				
